This note sets out measurements from patent publication US20130158014A1, “METHOD FOR TREATING DISEASES ASSOCIATED WITH ALTERATIONS IN CELLULAR INTEGRITY USING RHO KINASE INHIBITOR COMPOUNDS” (priority 2008, published 2013).

A short description of data set [1]: Compound plasma concentrations in unsensitized mice at 15 min post administration. The format is in vivo, mouse. To be noted: for Mouse Oral PK: mean plasma concentration in mice, 15 minutes post oral administration; for Plasma Mean Concentration: mice, 15 min post administration, mean n = 3 mice.
Description: Test compounds were formulated in water or 1% polysorbate 80 and dosed at 15 μmmol/kg for intraperitoneal (IP) or oral (PO) administration or formulated for intratracheal (IT) administration and dosed at 5 μmmol/kg, which directly targets the lungs. Following completion of the in vivo study, mice were euthanized and blood and plasma collected approximately 2.5-3 hours post administration of test compound for bronchodialator (BD) studies and 24 hours post administration for anti-inflamatory (AI) studies. […] Both plasma samples and lung extracts were assayed for compound concentrations using an on-line, solid phase extraction LC/MS/MS system.
A further data set deals with T1, p70S6K (Homo sapiens, UniProt P23443, T412E).
T1 construct: purchased Upstate Chemicon 14-486
The data set is described as follows: p70S6K inhibition assay (IMAP). The class given is biochemical. To be noted: average.

Data set [2] in a line: Rat oral pharmacokinetics (plasma). The class given is in vivo. As to conditions: rat oral PK, mean n = 3 rats, 20-30 μmmol/kg.
Description: Plasma (EDTA K2 anticoagulant) was collected from male, cannulated, CD Sprague Dawley rats to determine the pharmacokinetics of formulations containing compound inhibitors of Rho kinase. Each animal was dosed orally with a 4 ml/kg solution or suspension of each test compound in 10 mM acetate buffered saline, pH 4.5 at a final concentration range of 20-30 μmmol/kg. Blood was collected at 0.25, 0.5, 1, 2, 4, 6, 8, and 24 hours. Plasma samples were assayed for the concentration of the test compound using an on-line, solid phase extraction LC/MS/MS analysis system.
Samples were analyzed on a QSTAR Elite, hybrid quadrupole time-of-flight mass spectrometer (Applied Biosystems, Framingham, Mass.) coupled with a Symbiosis Pharma integrated, on-line SPE-HPLC system (Spark Holland Inc., Plainsboro, N.J.). Analyst QS 2.0 software was used for instrument control, data acquisition and processing. […] Mobile Phase A consisted of 0.1% ammonium hydroxide in water and Mobile Phase B consisted of 0.1% formic acid in acetonitrile. Pharmacokinetic analyses were performed using WinNonlin software version 5.2 (Pharsight Corporation, Mountain View, Calif.).
As determined from the plasma concentration versus time curves, the time to peak and peak exposure are represented by the values Tmax and Cmax, respectively. The AUC values (nM*hr) shown were calculated as the areas under the plasma concentration versus time curves from time zero through the time of the last observable value and represent the total exposure of the compound over the course of the study. Half-life values or the amount of time required for the plasma levels of the compound to decline to half the initial value are represented as t1/2.
Data set [3] relates to ova-sensitized, ova-challenged mice. Description: Prevention of airway hyperreactivity (Penh, methacholine) in mouse ovalbumin model. To be noted: days 27 to 31; for airway hyperreactivity: intratracheal once a day. The class given is in vivo. How it is done: The anti-inflammatory dosing paradigm consists of dosing the animals once a day starting on day 27 and finishing on either day 30 or 31 (1 hr prior to the aerosolized ovalbumin challenges on days 28 to 30) but not on day 32 when hyperreactivity evaluation occurs. […] Exposure to the methacholine doses consisted of a 3 minute period during which a nebulizer was aerosolizing the methacholine and an additional 3 minute period following the cessation of nebulization. […] Enhanced pause (Penh), a unitless index of airway hyperreactivity, is derived from the expiratory side of the respiratory waveform measured via the plethysmograph and is used as an indirect measure of airway resistance and hyperreactivity. […] Following the methacholine dose response, BALF was collected and all animals were anesthetized, bled and euthanized. […] The Penh value at each of the dose levels of methacholine represents the 6-minute average response. Change from baseline (CFB) in Penh was calculated at each methacholine dose and the area under the curve (AUC) for these CFB values was calculated using the trapezoidal rule. This same approach was applied for each mouse across multiple experiments. […] Data from equal experimental conditions across experiments performed on different days were pooled for statistical analysis and data reporting. […] A random intercept for each experiment was assumed to account for possible similarities of the results obtained from a given experiment (i.e., as a “blocking effect”). […] For FIG. 9, linear AUC values from compound treated mice were reported as a percent of linear AUC values from vehicle-treated ovalbumin-sensitized/ovalbumin-challenged (asthmatic) mice.

The test system is the same in data set [4]. The data set is described as follows: Mouse ovalbumin sensitization model: eosinophils in BALF. The format is in vivo. To be noted: dosed orally once a day, day 27 to day 31; FIG. 4. How it is done:
Male BALB/c mice were ordered from Charles River Laboratories (Raleigh, N.C.). The animals were approximately 19 to 21 grams at time of receipt. Upon arrival, the animals were randomized into groups of five males per cage and assigned to a dosing group. Animals were quarantined for 7 days under test conditions. They were observed daily for general health status and ability to adapt to the water bottles. Animals were sensitized on day 0 and 14 of study by an intraperitoneal injection with 20 μg of ovalbumin (ova) and 2.0 mg aluminum hydroxide (alum) which initiates the development of a specific T-helper (Th) cells type 2 resulting in asthmatic animals (denoted as Ova in the figures). One group of animals received an injection of saline to use as control animals (denoted as normal in the figures). All animals were challenged with aerosolized 1% ova once daily for 25 minutes on days 28, 29, and 30 (Zosky, et al. Respiratory Research. 2004; 5:15). Aerosol challenge consists of using an Aerogen Aeroneb nebulizer and controller with a particle size of 4-6 μm mass median aerodynamic diameter (MMAD) with a distribution of 400 μl per minute. This aerosol challenge is necessary to target the Th2-driven allergic inflammation in the lower airways. […]
Bronchoalveolar lavage fluid (BALF) was collected by infusing 3.0 ml of saline with 10% fetal calf serum into the lungs via the trachea and then withdrawing the fluid. The total amount of cells/ml of BALF fluid was determined via manual cell count on hemocytometer. The BALF was centrifuged, supernatant removed and analyzed for cytokine concentrations as described below, and cell pellet reconstituted in 500 μL of fluid. […] Following Hema3 stain, relative percentages of individual leukocytes were determined on a 200 cell count for each sample. The final concentration of individual leukocyte cell types per ml of BALF was determined by multiplication of the relative percentage of individual leukocytes with the total amount of cells/ml of BALF fluid.

Another data set addresses T2, ERK2 (Homo sapiens, UniProt P28482).
T2 construct: purchased Upstate, Millipore Bioscience Division (KinaseProfiler service)
Description: Kinase panel screen (KinaseProfiler): ERK2. The format is biochemical. To be noted: 10 μM ATP, read-out: Percent inhibition ERK2; for activity at 1 µM: 1 μM test compound; for activity at 10 µM: 10 μM test compound. The protocol:
Compounds of Formulae I and II were examined for activity against a selected panel of kinases using the KinaseProfiler™ enzyme profiling services (Upstate, Millipore Bioscience Division). Percent kinase activity at 10 μM and 1 μM test compound and 10 μM ATP was determined against 40 wild-type recombinant human kinases according to Upstate's standard protocol: ASK1, BTK, CSK, c-RAF, GCK, GSK3β, IKKα, IKKβ, IRAK1, IRAK4, JNK1α1, JNK2α2, JNK3, ERK1, ERK2, MAPKAP-K2, MAPKAP-K3, MEK1, MKK4, MKK6, MKK7β, Mnk2, MSK1, PAK3, PDK1, PRAK, ROCK1, Rsk2, SAPK2a, SAPK2b, SAPK3, SAPK4, SRPK1, SRPK2, Syk, TAK1, TBK1, PI3-Kβ, PI3-Kγ, PI3-Kδ.

Data set [5] has as its system IL-1β secretion from LPS-stimulated human monocytes. The data set is described as follows: Human monocyte cytokine secretion assay (LPS): IL-1β. The format is cell-based. As to conditions: average percent of stimulated secretion from human monocytes, 10 μM test compound.
Description: (§1) Peripheral blood from healthy human volunteers was collected and the monocytes isolated via Ficoll-paque density centrifugation. […] The cells were allowed to pre-incubate with test compound at the indicated concentration for 30 minutes (37° C., 5% CO2, humidified air); after which the supernatant was removed and media containing compound and 1 ng/mL LPS was added. Cells were allowed to incubate with compounds and LPS for 4 hours at 37° C. after which the supernatant was removed and stored at −80° C. Cytokine concentrations in the supernatant were determined using commercially available Bio-Rad Bio-plex™ kits according the manufacturer's instructions.
Data set [6] deals with A-10 rat thoracic aorta cells. The data set is described as follows: PDGF-stimulated smooth muscle cell proliferation assay (BrdU). To be noted: for Proliferation at 10 μM: 10 μM test compound. The class given is cell-based.
Description: Effects on cell proliferation were measured using a bromodeoxyuridine (BrdU) incorporation assay. […] Serum free media containing 0.1% BSA was added to the cells. 24 hours later the media was removed and replaced with warmed serum free media. […] Proliferation was then monitored using the BrdU Cell Proiferation Assay, HTS (Calbiochem cat. #HTS01). BrdU was allowed to incorporate into cells for 24 hours prior to the addition of fixative/denaturing solution and the fluorometric detection of incorporated BrdU using a BrdU antibody as per manufacturer's directions. Data are reported as a percent of the PDGF-stimulated BrdU incorporation.
Data set [7] relates to TNF-α secretion from LPS-stimulated human monocytes. The data set is described as follows: Human monocyte cytokine secretion assay (LPS): TNF-α. As to conditions: average percent of stimulated secretion from human monocytes, 10 μM test compound. The class given is cell-based.
Description: as §1
Data set [8] deals with IL-6 secretion from LPS-stimulated human monocytes. Description: Human monocyte cytokine secretion assay (LPS): IL-6. As to conditions: average percent of stimulated secretion from human monocytes, 10 μM test compound. The class given is cell-based.
Description: as §1
A further data set has as its target T3, Akt3 (Homo sapiens, UniProt Q9Y243).
T3 construct: purchased Upstate Chemicon 14-502
The data set is described as follows: Akt3 inhibition assay (IMAP). The format is biochemical. To be noted: IMAP FP assay, 30 μM ATP; average.

The target in the next data set is T4, ROCK2 (Homo sapiens, UniProt O75116).
T4 construct: purchased Upstate/Chemicon 14-451
The data set is described as follows: Rho kinase inhibition assay (IMAP), ROCK2. As to conditions: average. The class given is biochemical.

For another data set, the system named is LPS-challenged mice. The data set is described as follows: LPS-induced cytokine production assay (IL-1β in BALF). The format is in vivo, mouse. As to conditions: intratracheal, one hour prior to LPS challenge; BALF four hours after; FIG. 13. The protocol: Male BALB/c mice, approximately 19 to 21 grams, were ordered from Charles River Laboratories (Raleigh, N.C.). All animals were challenged with aerosolized LPS (10 μg/ml) for 25 minutes on study day 0. LPS aerosol was generated using an Aerogen Aeroneb nebulizer and controller providing a flow of 400 μl/min and a particle size of 2-4 μm MMAD. Rolipram was administered i.p at 20 mg/kg. […] Total cell counts were determined using the Coulter Counter. For differential evaluations, BALF was centrifuged and cytospin slides prepared and stained […]. Manual leukocyte counts were then completed on 200 cells. The final concentration of individual leukocyte cell types per ml of BALF was determined by multiplication of the relative percentage of individual leukocytes with the total amount of cells/ml of BALF fluid. The concentration of IL-1β in the BALF samples was determined using commercially available Bio-plex kits (Bio-Rad).

The mark [9] stands for this setting: IMAP FP assay, 30 μM ATP, read-out: p70S6K Ki, Avg.
Where [10] appears, read: average percent of PDGF stimulated proliferation.
[11] abbreviates: IMAP assay, 10 μM ATP, read-out: ROCK2 Ki, Avg.

Like-named read-outs stand apart in the source and are kept apart here.

T1 sequence (P23443 1-421 T412E limits assumed): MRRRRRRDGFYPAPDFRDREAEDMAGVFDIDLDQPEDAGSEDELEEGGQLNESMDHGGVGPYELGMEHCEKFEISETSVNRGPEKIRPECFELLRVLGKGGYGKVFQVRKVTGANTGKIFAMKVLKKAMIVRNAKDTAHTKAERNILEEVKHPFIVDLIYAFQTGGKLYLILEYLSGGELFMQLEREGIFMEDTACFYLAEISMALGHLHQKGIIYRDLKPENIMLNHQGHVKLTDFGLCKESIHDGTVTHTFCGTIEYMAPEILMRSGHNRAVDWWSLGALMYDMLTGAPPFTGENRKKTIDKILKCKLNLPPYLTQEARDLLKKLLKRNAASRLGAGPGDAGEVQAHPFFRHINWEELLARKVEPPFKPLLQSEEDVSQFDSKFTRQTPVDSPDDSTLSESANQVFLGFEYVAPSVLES
T4 sequence (O75116 11-552 limits assumed): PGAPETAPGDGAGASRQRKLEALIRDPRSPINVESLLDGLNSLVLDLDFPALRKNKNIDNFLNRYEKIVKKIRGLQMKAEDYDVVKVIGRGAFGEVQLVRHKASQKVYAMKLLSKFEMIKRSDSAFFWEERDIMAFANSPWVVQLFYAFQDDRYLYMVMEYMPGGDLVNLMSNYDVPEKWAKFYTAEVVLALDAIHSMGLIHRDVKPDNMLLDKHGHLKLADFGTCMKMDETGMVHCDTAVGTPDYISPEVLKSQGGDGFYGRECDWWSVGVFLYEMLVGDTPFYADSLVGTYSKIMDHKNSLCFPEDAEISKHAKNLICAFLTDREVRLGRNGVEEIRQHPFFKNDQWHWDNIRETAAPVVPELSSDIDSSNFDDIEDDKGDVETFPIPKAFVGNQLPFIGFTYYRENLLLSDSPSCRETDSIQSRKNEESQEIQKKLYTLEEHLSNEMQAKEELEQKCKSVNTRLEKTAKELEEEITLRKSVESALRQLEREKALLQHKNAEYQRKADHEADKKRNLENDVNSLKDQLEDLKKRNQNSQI
T2 sequence (P28482 whole entry): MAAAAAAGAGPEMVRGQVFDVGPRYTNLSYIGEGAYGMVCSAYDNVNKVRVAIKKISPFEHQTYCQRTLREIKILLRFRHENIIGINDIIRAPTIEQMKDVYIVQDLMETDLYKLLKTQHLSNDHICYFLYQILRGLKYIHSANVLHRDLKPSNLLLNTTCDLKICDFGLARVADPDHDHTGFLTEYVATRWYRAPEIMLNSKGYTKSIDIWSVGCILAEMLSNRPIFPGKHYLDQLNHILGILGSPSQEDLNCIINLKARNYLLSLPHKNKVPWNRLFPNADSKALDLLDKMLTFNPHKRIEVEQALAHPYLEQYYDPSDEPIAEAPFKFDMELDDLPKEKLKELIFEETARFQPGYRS
T3 sequence (Q9Y243 whole entry): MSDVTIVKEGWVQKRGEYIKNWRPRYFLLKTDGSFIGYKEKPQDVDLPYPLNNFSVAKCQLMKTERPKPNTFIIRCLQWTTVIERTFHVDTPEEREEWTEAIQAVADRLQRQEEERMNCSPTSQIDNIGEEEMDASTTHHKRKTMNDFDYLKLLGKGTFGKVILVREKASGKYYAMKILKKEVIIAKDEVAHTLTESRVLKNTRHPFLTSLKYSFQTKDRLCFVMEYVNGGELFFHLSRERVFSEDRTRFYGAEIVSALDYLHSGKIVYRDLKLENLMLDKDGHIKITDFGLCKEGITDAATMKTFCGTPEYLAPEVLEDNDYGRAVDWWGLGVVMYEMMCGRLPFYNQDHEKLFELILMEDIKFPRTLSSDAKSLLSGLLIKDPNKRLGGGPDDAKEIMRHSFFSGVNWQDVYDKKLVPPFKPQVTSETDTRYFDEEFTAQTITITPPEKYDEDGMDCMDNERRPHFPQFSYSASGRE
Description for Akt3: (§2) Inhibition of Akt3 and p70S6K activity was determined using the IMAP™ FP Progressive Binding Kit (Molecular Devices product number R8127). […] Following the pre-incubation, 30 μM ATP was added to initiate the reaction. After 60 minutes at RT, Molecular Devices IMAP™ binding solution was added to bind phosphorylated substrate. After 30 minutes of incubation in the presence of the IMAP™ beads the fluorescence polarization was read and the ratio was reported as mP. IC50 results were calculated using the Prism software from Graphpad. The Ki values were determined according to the following formula: Ki=IC50/(1+([ATP Challenge]/EC50 ATP)).
Description for ROCK2: Following the pre-incubation, 10 μM ATP was added to initiate the reaction. After 60 minutes at room temperature, Molecular Devices IMAP™ binding solution was added to bind phosphorylated substrate. After 30 minutes of incubation in the presence of the IMAP™ beads, the fluorescence polarization was read and the ratio was reported as mP. IC50 values for compounds and EC50 values for ATP were calculated using the Prism software from Graphpad.
Description for p70S6K: as §2

The Ki is a measure of affinity in units of concentration, obtained from inhibition or displacement. Turning to `COc1ccc(CN2CCC[C@H](Nc3ccc4[nH]ncc4c3)C2)cc1` [Compound 1.079], in data set [1], the “Mouse Oral PK” value is 2443 nM and the “Plasma Mean Concentration” value is recorded as 2442.5 nM. In addition, the Ki at p70S6K (setting [9]) is 3.01 µM. Further, the Ki on p70S6K (read-out: p70S6K Ki) was 3.01 µM.

In [2], `OCCOc1cccc(CN2CCC[C@@H](Nc3ccc4[nH]ncc4c3)C2)c1` [Compound 1.092] came in with a Vz_F of 19.0 L/kg.

As to `c1cc2cc(CN3CCC[C@@H](Nc4ccc5[nH]ncc5c4)C3)ccc2o1` [Compound 1.131], in data set [3] (oral 15 μMol/kg once a day), the “airway hyperreactivity to methacholine on Day 32” value is “prevention of airway hyperreactivity”. Moreover, in data set [4], the “eosinophils per ml of BALF” value was “reduced”.

In the case of `CCc1ccc(CN2CCC[C@@H](Nc3ccc4[nH]ncc4c3)C2)cc1` [Compound 1.136], in data set [2], the “AUC (0-last)” value is given as “BLQ”, the Cmax entry is given as “BLQ”, the Tmax result is reported as “BLQ” and the Vz_F result is recorded as “BLQ”. In [2], the t½ entry is reported as “BLQ”.

For the molecule `Cc1ccc(CN2CCC[C@@H](Nc3ccc4[nH]ncc4c3)C2)cc1OCCO` [Compound 1.161], in data set [3], the airway hyperreactivity result is recorded as “prevention of airway hyperreactivity”. Besides, on ERK2, the activity at 1 µM is 104% and the activity at 10 µM stood at 92%.

Regarding `NC(=O)COc1cccc(CN2CCC[C@H](Nc3ccc4[nH]ncc4c3)C2)c1` [Compound 1.195], in data set [1], the “Mouse Oral PK” value was 108 nM and the “Plasma Mean Concentration” value came out at 107.9 nM. Besides, at p70S6K (setting [9]), the Ki was determined as 2.73 µM. The Ki at p70S6K (read-out: p70S6K Ki) amounted to 2.73 µM.

The molecule `Cc1ccc(CN2CCC[C@H](Nc3ccc4[nH]ncc4c3)C2)cc1NS(=O)(=O)N(C)C` [Compound 1.237] returned an IL-1β in data set [5] of 97.1%. In addition, in data set [6] (1 μM, 10 ng/mL PDGF), the “Percent of PDGF Induced Proliferation at 1 μM Avg” value stood at 63.5%. The “Percent of PDGF Induced Proliferation at 10 μM Avg” value in [6] (10 μM, 10 ng/mL PDGF) was found to be 51.4%. The “Proliferation at 1 μM” value in [6] (average percent of PDGF stimulated proliferation, 1 μM test compound) is reported as 63.5%. For the same molecule, in data set [6] (setting [10]), the “Proliferation at 10 μM” value worked out at 51.4%. Besides, the TNF-α in data set [7] amounted to 70.6%. In data set [8], this molecule returned an IL-6 of 100.9%. Moreover, the results for the Ki on Akt3, at ROCK2 (setting [11]) and at ROCK2 (read-out: ROCK2 Ki) were 7.91 µM, 0.004 µM and 0.004 µM, respectively.

In data set [5], `Cc1ccc(CN2CCC[C@@H](Nc3ccc4[nH]ncc4c3)C2)cc1NS(=O)(=O)N(C)C` [Compound 1.262] displayed an IL-1β of 145.7%. The molecule further had a TNF-α in [7] of 135.3%. In addition, the IL-6 in data set [8] was determined as 156.6%. Besides, the figures for the Ki on Akt3, at ROCK2 (setting [11]) and at ROCK2 (read-out: ROCK2 Ki) were 0.861 µM, 0.004 µM and 0.004 µM, respectively.

Turning to `CSc1ccc(CN2CC[C@@H](Nc3cccc4cnccc34)C2)cc1` [Compound 2.026], the “Proliferation at 10 μM” value in [6] (setting [10]) came to 52.0%. Moreover, in data set [2], the “AUC (0-last)” value is on record as “BLQ”, the Cmax result is “BLQ”, the Tmax result is listed as “BLQ” and the Vz_F entry is listed as “BLQ”. In data set [2], the t½ entry is “BLQ”.

Take `NC(=O)Cn1ccc2cc(CN3CC[C@@H](Nc4cccc5cnccc45)C3)ccc21` [Compound 2.059]: the airway hyperreactivity result in [3] is on record as “prevention of airway hyperreactivity”. Also, in the data set with LPS-challenged mice, the “IL-1β in BALF” value is “reduction”. Besides, on ERK2, the activity at 1 µM was determined as 56% and the activity at 10 µM came to 12%.

As for `OCCn1ccc2cc(CN3CC[C@@H](Nc4cccc5cnccc45)C3)ccc21` [Compound 2.066], the airway hyperreactivity result in data set [3] is on record as “prevention of airway hyperreactivity”. Further, at ERK2, the activity at 10 µM was 12%.
